# Data published in patent US20180008629A1, “Compositions and Methods for Treating NLRP3 Inflammasome-Related Diseases and Disorders” (priority 2015, published 2018).
# Assays:
# H3 acetylation = H3 acetylation in LPS primed BMDMs (western blot); format: cell-based, mouse; conditions: LPS primed BMDMs treated with ATP and BHB 1 h
# Experimental: FIG. 5, comprising FIGS. 5A-5B, depicts data from experiments examining the mechanism of BHB's anti-inflammasome effects. FIG. 5A is a representative western blot analysis of caspase-1 in BMDMs primed with LPS for 4 hours and stimulated with 2DG, AICAR, Compound C and BHB for 1 h on indicated combinations. FIG. 5B is a representative western blot examining H3 acetylation in LPS primed BMDMs treated with ATP and S- or D-BHB (R-BHB) for 1 h.
# The BMDM cell lysates were prepared using RIPA buffer and immediately snap frozen in liquid nitrogen. Samples were left on ice for 1 hour with vortexing every 10 min. Samples were then centrifuge at 14,000 g for 15 min, the supernatant was collected and the protein concentration was determined using the DC Protein Assay (Bio-RAD). The immunoblot analysis was performed using previously described methods (Vandanmagsar et al., 2011, Nat. Med. 17:179-188). The immune complexes were visualized by incubation with horseradish peroxidase-conjugated anti-rat or anti-rabbit secondary antibody (Amersham Biosciences). Immunoreactive bands were visualized by enhanced chemiluminescence (PerkinElmer Life Sciences).
# human monocytes = assay: Cytokine secretion from LPS stimulated human monocytes (ELISA); format: cell-based; conditions: LPS (1 μg/mL) 4 h, increasing concentrations of BHB
# Experimental: The cryopreserved peripheral blood monocuclear cells were used to sort CD14+ monocytes using isolation kit from Miltenyi (130-091-153). A total of 6 healthy subjects, ([…], […], person, person, […] and […]) were used for monocyte isolations. Monocytes were seeded in 6 well plates at concentration of 3 million/mL of RPMI1640 media with 10% FCS and antibiotic/antimycotic mixture and stimulated with LPS for 4 h. The supernatants were used to measure IL-1β, IL-18 and TNF using ELISA. Human peripheral blood was collected by the Health Apheresis Unit and the Clinical Core Laboratory, the National Institute on Aging-Intramural Research Program, under Human Subject Protocol #2003054 and Tissue Procurement Protocol #2003-071.
# AIM2 inflammasome = AIM2 inflammasome (Mus musculus, UniProt Q91VJ1); format: cell-based
# [1] = tested on: neutrophil hyperactivation; assay: MSU peritonitis model in old mice fed ketogenic diet; format: in vivo, mouse; conditions: ketogenic diet one week prior to MSU challenge
# Experimental: Old mice were fed a ketogenic diet for one week prior to MSU challenge to induce neutrophil infiltration and inflammasome activation (FIG. 16A). Body weights and blood BHB concentrations were measured daily. Four hours after MSU injection, total peritoneal cells were collected and analyzed by FACS to enumerate total neutrophil infiltration (FIG. 16B). Gene expression within peritoneal cells was measured by RT-PCR (FIG. 16C). Expression was normalized to Gapdh expression and data are represented as expression relative to adults. Data are pooled from two independent experiments (FIGS. 16B and 16C). Statistical differences were calculated by 2-way ANOVA (FIG. 16A) or 1-way ANOVA (FIG. 16B). […]
# Mice were fed a ketogenic diet for 1 week prior to an increase in BHB levels and then infection or peritonitis was induced by injection of monosodium urate. Body weights and blood BHB concentrations were measured daily in old mice during ketogenic diet feeding, prior to MSU injection (FIG. 19A). […] The peritoneal cells were isolated and pro-inflammatory cytokine Il1b, Nlrp3 and Tnf gene expression was measured by RT-PCR (FIG. 19B). […] Blood BHB levels were measured in adult mice 24 hr post-infection with Staphylococcus aureus (FIG. 19C). Total cells collected from brocho-aleveolar lavage BAL fluid from lungs 24 hr post-infection were quantified (FIG. 19D). […]
# BMDMs [2] = assay: Intracellular K+ measurement in BMDMs (APG-1 dye, ICP-MS); format: cell-based, mouse; conditions: LPS primed BMDMs
# Experimental: (§1) The BMDM proliferation in response to BHB treatment was analyzed using the MTT assay according to manufacturer's instructions. The BMDM were incubated with Asante Potassium Green 1 (APG-1) which is a fluorescent indicator with a Kd for measuring cytosolic K+ concentration. It has non-ratiometric large fluorescence dynamic range allows sensing of even small changes in K+ concentration. Optimal excitation was recorded at 517 nm. In addition, the K+ was measured in BMDMs using an ElementXR or Agilent 7700 Inductively Coupled Mass Spectrometry (ICP-MS) using previously described methods (Muñoz-Planillo et al., 2013, Immunity 38:1142-1153). For error analysis, samples and standard solutions were run in duplicate.
# BMDMs [3] = assay: BMDM viability and proliferation (MTT assay); format: cell-based, mouse
# Experimental: as §1
# Chain of AIM2 inflammasome (Q91VJ1 whole entry, looked up): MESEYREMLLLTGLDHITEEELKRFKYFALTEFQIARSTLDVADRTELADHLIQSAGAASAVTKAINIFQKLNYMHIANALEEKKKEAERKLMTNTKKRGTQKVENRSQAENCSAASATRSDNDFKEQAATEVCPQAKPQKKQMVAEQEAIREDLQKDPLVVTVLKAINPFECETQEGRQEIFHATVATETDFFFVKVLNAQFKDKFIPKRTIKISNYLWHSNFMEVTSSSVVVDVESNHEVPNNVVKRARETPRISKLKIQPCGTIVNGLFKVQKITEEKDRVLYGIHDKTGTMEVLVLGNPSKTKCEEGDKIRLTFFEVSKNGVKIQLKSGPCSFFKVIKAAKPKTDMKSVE
smiles,measurement,setting,value
"CC(O)CC(=O)O (stereo not drawn) [BHB, β-hydroxybutyrate]",H3 acetylation in macrophages,H3 acetylation,inducing
same,IL-1β secretion,human monocytes,dose dependently inhibited
same,IL-18 secretion,human monocytes,dose dependently inhibited
same,TNFα production,human monocytes,without significantly affecting
same,AIM2 inflammasome induced IL-1β activation,AIM2 inflammasome,did not inhibit
same,neutrophil hyperactivation in peritonitis,[1],prevented
same,decline in intracellular K+ in response to MSU,BMDMs [2]; BHB 1 h,prevented the decline
same,decline in intracellular K+ in response to ATP,BMDMs [2]; BHB (10 mM),prevented the decline
same,decline in intracellular K+ in response to ceramides,BMDMs [2]; C6 ceramide and BHB 1 h,prevented the decline
same,cellular proliferation,BMDMs [3]; 10 mM concentration,significantly increased
same,viability of BMDMs,BMDMs [3]; increasing concentration of BHB,did not impair
